In PubChem BioAssay (NCI):
Values joined by “and” are separate entries in the source; they are usually repeats but may differ in a detail not shown here. Equal entries are not always repeated.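 The compound was tested at five concentrations on cells cultured in 96-well plates, with a 48-hour exposure period. GI50 = concentration required for 50% inhibition of growth. TGI: concentration producing complete growth inhibition.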

Key:
Assay in all cases: DTP human tumour cell line panel, 48 h
NCI-H226 lung = test system: NCI-H226 lung
SF-295 CNS = test system: SF-295 CNS
HL-60(TB) leukemia = test system: HL-60(TB) leukemia
BT-549 breast = test system: BT-549 breast
OVCAR-5 ovarian = test system: OVCAR-5 ovarian
HCT-116 colon = test system: HCT-116 colon
RXF 393 renal = test system: RXF 393 renal
CAKI-1 renal = test system: CAKI-1 renal
MCF7 breast = test system: MCF7 breast
SR leukemia = test system: SR leukemia

SMILES | TGI (NCI-H226 lung) [µM] | TGI (SF-295 CNS) [µM] | TGI (HL-60(TB) leukemia) [µM] | TGI (BT-549 breast) [µM] | TGI (OVCAR-5 ovarian) [µM] | TGI (HCT-116 colon) [µM] | TGI (RXF 393 renal) [µM] | TGI (CAKI-1 renal) [µM] | TGI (MCF7 breast) [µM] | TGI (SR leukemia) [µM] | GI50 (NCI-H226 lung) | GI50 (SF-295 CNS) [µM] | GI50 (HL-60(TB) leukemia) | GI50 (OVCAR-5 ovarian) [µM] | GI50 (HCT-116 colon) [µM] | GI50 (CAKI-1 renal) [µM]
Cc1cn([C@@H]2O[C@H](CO[Si](C)(C)C(C)(C)C)[C@]3(O[C@H]3C(=O)NN)[C@H]2O[Si](C)(C)C(C)(C)C)c(=O)[nH]c1=O | 27.6 | 22.2 | 6.09 | 13.9 | 21.3 | 13.3 | > 25.2 | 28.2 | 15.1 |  |  |  |  |  |  | 
O=CC12C3CCC1C2C(=O)C3 (centres undefined) | > 100 | > 100 |  | > 100 | > 100 | > 100 | > 100 | > 100 | > 100 | > 100 |  |  |  |  |  | 
CC(C)C(/C=C/c1ccc(Cl)c(Cl)c1)=N\NC(=O)N/N=C(/C=C/c1ccc(Cl)c(Cl)c1)C(C)C | > 100 | > 100 | > 100 | > 100 | > 100 |  |  | > 100 | > 100 | > 100 |  |  |  |  |  | 
O=C1CC(c2cccc(Br)c2)n2cccc21 (centres undefined) | > 100 | > 100 | 87.3 |  | > 100 | > 100 | > 100 | > 100 | > 100 | > 100 |  |  |  |  |  | 
Cc1ccc2nc(-c3ccc(N4C(=O)C(Cl)C4c4ccc(Cl)cc4)cc3)sc2c1 (centres undefined) | 36 | 32.1 | > 100 | > 100 | 45.3 | 59.4 |  | 35.6 | 32.7 | 57.9 |  |  |  |  |  | 
Cc1csc(/N=C\c2c(O)c3ccccc3oc2=O)n1 | > 100 |  |  | > 100 | > 100 | > 100 |  | 34.1 | > 100 |  |  |  |  |  |  | 
COc1cc2cc(C(=O)N3CC(CCl)c4c3cc(N)c3ccccc43)[nH]c2c(OC)c1OC (centres undefined) | 1.13 |  |  |  |  | 1.08 | < 0.01 | < 0.01 |  | < 0.01 |  |  |  |  |  | 
COc1ccc(C2C3COc4ccccc4C3=NN2c2ccccc2)cc1 (centres undefined) | > 100 | > 100 |  | > 100 | > 100 | > 100 | > 100 | > 100 | > 100 | > 100 |  |  |  |  |  | 
COC(=O)c1cnc(Cl)cn1 | > 100 | > 100 | > 100 | > 100 | > 100 | > 100 |  | 37.5 | 95.5 | > 100 |  |  |  |  |  | 
O=C(N/N=C(/COc1ccc([N+](=O)[O-])cc1)N=Cc1ccncc1)c1ccncc1 | > 100 | > 100 | > 100 | > 100 | > 100 | > 100 | > 100 | > 100 | > 100 |  |  |  |  |  |  | 
O=c1[nH]nc(Cc2ccccc2)n1CCO | > 100 | > 100 |  | > 100 | > 100 | > 100 |  | > 100 | > 100 |  |  |  |  |  |  | 
CCOC(=O)/C(C#N)=C/c1ccnc2ccccc12 | > 100 | > 100 |  | > 100 | > 100 | > 100 | > 100 | > 100 |  | 64.9 |  |  |  |  |  | 
CC(C)C(N)=O | > 5000 | > 5000 | > 5000 |  | > 5000 | > 5000 | > 5000 | > 5000 |  | > 5000 |  |  |  |  |  | 
CC1C2(C)OC(=N)C(C#N)(C(c3cccc([N+](=O)[O-])c3)O2)C1(C#N)C#N (centres undefined) | > 100 | > 100 | 39 | > 100 | > 100 | 40.4 | 43.9 | 24.4 | 50.2 |  |  |  |  |  |  | 
Nc1ccc(C(=O)c2cn(CCN3CCOCC3)c3ccccc23)c2ccccc12 |  | > 100 | 44.8 | 58.3 | > 100 | > 100 |  | > 100 | > 100 | 65.6 |  |  |  |  |  | 
C/C=C/C1OC(O)(C(C)C(O)[C@H](C)C2OC(=O)/C(OC)=C/C(C)=C/[C@@H](C)[C@@H](O)[C@@H](C)C(O)C(C)C/C(C)=C/C=C/C2OC)C[C@@H](OC2CC(O)C(OC(N)=O)C(C)O2)C1C (some centres undefined) | 6.97 | < 0.01 |  | 12 | 3.14 | 1.42 | 1.91 | 13.9 | 7.65 |  |  |  |  |  |  | 
C=C(OC1C(C)=C2C(C1OC(=O)CCCCCCC)C(C)(OC(C)=O)CC(OC(=O)CCC)C1(O)C2OC(=O)C1(C)O)/C(C)=C/C (centres undefined) | 0.226 | 3.22 |  |  | 8.64 | 0.000151 | 1.53 | 0.0615 | 0.191 |  | < 0.0001 µM | < 0.0001 | < 0.0001 µM | < 0.0001 | < 0.0001 | 0.000475
CC/C=C(\C(=C/CC)[N+](=O)[O-])[N+](=O)[O-] | > 100 | > 100 |  | 32.2 | 27.2 | 35.1 | 31 | 37.8 | 38.1 |  |  |  |  |  |  | 
O=C1Nc2ccc(Cl)cc2/C1=C\c1c(Cl)nc2sccn12 |  | 25.3 | 33.7 | > 100 | 78.2 | 34 | > 100 | > 100 |  | > 100 |  |  |  |  |  | 
C[N+]1(CCCl)CC[N+](C)(CCCl)CC1 (centres undefined) | > 100 | > 100 | > 100 | > 100 | > 100 | > 100 | > 100 | > 100 | > 100 |  |  |  |  |  |  | 
NNC(=O)c1nnn(CCc2ccccc2)c1C(=O)NN |  | > 100 | > 100 | > 100 | > 100 | > 100 |  | > 100 | > 100 | > 100 |  |  |  |  |  | 
Cc1c2c(OCCN3CCCCC3)nn(C)c(=O)c2c(C)n1-c1ccccc1 | > 100 | 47.9 | > 100 | > 100 | > 100 | > 100 | > 100 | > 100 | > 100 |  |  |  |  |  |  | 
N#Cc1c(-c2ccccc2)[nH]c(=O)n(C2OC(CO)C(O)C(O)C2O)c1=O (centres undefined) | > 100 | > 100 | > 100 | > 100 | > 100 | > 100 | > 100 | > 100 | > 100 |  | > 100 µM and 45.4 µM |  | 47.4 µM and > 100 µM |  |  | 
CC(=O)OCC1OC(Oc2cc(C)c(O)cc2C/C=C(\C)CC/C=C(\C)CC(=O)CC(C)C)C(O)C(OC(C)=O)C1OC(C)=O (centres undefined) |  | > 50 | 23.4 | 31.2 | > 50 | > 50 | 22.6 | > 50 | 43.8 |  |  |  |  |  |  | 
